Data on 2 compounds can be found in ChEMBL document CHEMBL4765227, “Hit to lead optimization of a series of N-[4-(1,3-benzothiazol-2-yl)phenyl]acetamides as monoacylglycerol lipase inhibitors with potential anticancer activity” (Eur J Med Chem, 2016).

Format in all cases: functional
For one test, the system named is LOX IMVI. The test can be described thus: Growth inhibition of human LOX IMVI cells incubated for 48 hrs by sulforhodamine B assay.
The next test deals with CCRF-CEM. Put plainly: Growth inhibition of human CCRF-CEM cells incubated for 48 hrs by sulforhodamine B assay.
Another test concerns HT-29. The test can be described thus: Growth inhibition of human HT-29 cells incubated for 48 hrs by sulforhodamine B assay.
Another test relates to SK-MEL-28. The test can be described thus: Growth inhibition of human SK-MEL-28 cells incubated for 48 hrs by sulforhodamine B assay.
The test system of another test is K562. Put plainly: Growth inhibition of human K562 cells incubated for 48 hrs by sulforhodamine B assay.
For another test, the system named is HOP-62. Put plainly: Growth inhibition of human HOP-62 cells incubated for 48 hrs by sulforhodamine B assay. Conditions: for CC50: read-out: LC50 (the source's name).

The structures appear in SMILES notation. Bounds are passed on as bounds.

Consider `O=C(CNc1c(Cl)cccc1Cl)Nc1ccc(-c2nc3ccccc3s2)cc1`, for which the concentration for 50% growth inhibition (GI50) was determined as 1.19 µM in the test with LOX IMVI; 0.657 µM in the test with CCRF-CEM; 2.01 µM in the test on HT-29; 1.8 µM with SK-MEL-28; 2.86 µM in the test on K562; 3.31 µM with HOP-62. In addition, the 50% lethal concentration (LC50) was 6.03 µM with LOX IMVI, 8.66 µM in the test with HT-29, 7.47 µM with SK-MEL-28 and more than 100 µM in the test on K562. Also, the concentration for total growth inhibition (TGI) came to 2.68 µM with LOX IMVI; 2.97 µM in the test with CCRF-CEM; 4.17 µM in the test with HT-29; 3.67 µM in the test on SK-MEL-28; 11.5 µM with K562; 11.8 µM with HOP-62. Besides, the values for the CC50 with CCRF-CEM (read-out: LC50 (the source's name)) and in the test on HOP-62 were 45.9 µM and 77.8 µM, respectively.
`O=C(CNc1ccc(Cl)cc1)Nc1ccc(-c2nc3ccccc3s2)cc1`: the concentration for 50% growth inhibition (GI50) with LOX IMVI came out at 1.29 µM; in the test with HT-29, 1.96 µM; with SK-MEL-28 it was 2.03 µM; in the test with K562 it was 2.95 µM; in the test with HOP-62, 3.34 µM. Moreover, the LC50 in the test on LOX IMVI was 5.74 µM; in the test on HT-29, 8.17 µM; with SK-MEL-28, 9.72 µM; with K562, more than 100 µM. Also, the total growth inhibition concentration (TGI) was 2.72 µM in the test with LOX IMVI; 4 µM with HT-29; 4.44 µM in the test on SK-MEL-28; more than 100 µM with K562; 12.9 µM with HOP-62. Moreover, the CC50 in the test on HOP-62 was more than 100 µM.
